Where two headings read alike, the source gives them in different places. Values belong to the compound of their own block, whether it stands above or below them. Numbered stars: 1 amine (or outer) side, 2 acyl side, 3 side chain; on linkers, the order of the positions; unused ones are H or OH. Bridge positions count the residues as written; N and C are the ends. Square brackets hold non-standard residues; d marks the D form. Peptide text beside a SMILES is read from it. 1Nal = N[C@@H](Cc1cccc2ccccc12)C(=O)O; TBMB = c1c(C[*:1])cc(C[*:3])cc1C[*:2]; NMeR = CN[C@@H](CCCNC(=N)N)C(=O)O; Cha = N[C@@H](CC1CCCCC1)C(=O)O; Aze = O=C(O)[C@@H]1CCN1; Sar = CNCC(=O)O
Target: T1, human plasma Kallikrein (Homo sapiens, UniProt P03952)
T1 construct: purchased Stratech, UK
Test: Functional enzyme inhibition assay, fluorogenic substrate Z-PheArg-AMC
Assay type: biochemical
Conditions: for Ki: Ac-06-34-18(TMB)-NH2 series; for loss in potency / reduction in affinity compared to wildtype: vs Ac-06-34-18(TMB)-NH2
Experimental: Peptides were dissolved as the TFA-salts in their powder form, and stock solutions were usually prepared in water. All solutions were centrifuged and filtered ([…] syringe filters) prior absorption measurement at 280 nm. […] For peptides containing non-natural amino acids with suspected chromophoric properties (i.e. NorHar, 4PhenylPro, 3PaI, 4PaI, Tic, 4GuanPhe, 4,4-BPAI, 3,3-DPA, 1NAI, 2NAI, 4BenzylPro, Ind) concentrations were determined by weighing the powder and dissolving the peptide in a defined quantity of water.

T1 sequence (P03952 20-638): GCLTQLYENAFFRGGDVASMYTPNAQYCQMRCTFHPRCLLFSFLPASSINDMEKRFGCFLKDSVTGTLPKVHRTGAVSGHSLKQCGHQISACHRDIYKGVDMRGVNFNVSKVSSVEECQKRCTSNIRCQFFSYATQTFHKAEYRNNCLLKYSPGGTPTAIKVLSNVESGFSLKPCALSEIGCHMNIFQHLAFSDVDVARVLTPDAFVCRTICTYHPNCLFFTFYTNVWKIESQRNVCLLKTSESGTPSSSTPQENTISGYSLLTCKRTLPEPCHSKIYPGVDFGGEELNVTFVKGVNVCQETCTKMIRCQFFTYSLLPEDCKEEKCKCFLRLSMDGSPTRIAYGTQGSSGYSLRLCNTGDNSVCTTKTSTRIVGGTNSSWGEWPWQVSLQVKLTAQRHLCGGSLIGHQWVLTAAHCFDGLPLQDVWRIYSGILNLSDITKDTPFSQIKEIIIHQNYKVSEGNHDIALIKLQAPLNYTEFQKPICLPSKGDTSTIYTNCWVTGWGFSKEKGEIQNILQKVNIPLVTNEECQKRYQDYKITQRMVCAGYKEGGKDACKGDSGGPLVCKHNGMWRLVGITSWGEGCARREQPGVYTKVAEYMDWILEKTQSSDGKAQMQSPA

Compound: CC(=O)N[C@H]1CSCc2cc3cc(c2)CSC[C@H](NC(=O)[C@H](CCCNC(=N)N)NC(=O)[C@H](Cc2cccc4ccccc24)NC(=O)[C@@H]2CCCN2C(=O)[C@H](Cc2ccccc2)NC(=O)[C@H](CO)NC1=O)C(=O)N[C@@H](CC(C)C)C(=O)N[C@@H](Cc1c[nH]cn1)C(=O)N[C@@H](CCC(N)=O)C(=O)N[C@@H](CC(=O)O)C(=O)N[C@@H](CC(C)C)C(=O)N[C@H](C(N)=O)CSC3 [Ac-(06-34-18) Phe2 1Nal4] (Ac-CSFP[1Nal]RCLHQDLC-NH2; linker 1-7-13 via TBMB)
- Ki (Ki (nM) (human kallikrein)): 13.5 nM

Compound: CN=C(NC)NCCC[C@@H]1NC(=O)[C@H](C)NC(=O)[C@@H]2CCCN2C(=O)[C@H](Cc2c[nH]c3ccccc23)NC(=O)[C@H](CO)NC(=O)[C@@H](NC(C)=O)CSCc2cc3cc(c2)CSC[C@H](NC1=O)C(=O)N[C@@H](CC(C)C)C(=O)N[C@@H](Cc1c[nH]cn1)C(=O)N[C@@H](CCC(N)=O)C(=O)N[C@@H](CC(=O)O)C(=O)N[C@@H](CC(C)C)C(=O)N[C@H](C(N)=O)CSC3 [Ac-(06-34-18) SDMA5]
- Ki (Ki (nM) (human kallikrein)): 1410 nM

Compound: CC(=O)N[C@H]1CSCc2cc3cc(c2)CSC[C@H](NC(=O)[C@H](CCCNC(=N)N)NC(=O)[C@H](CC2CCCCC2)NC(=O)[C@@H]2CCCN2C(=O)[C@H](Cc2ccccc2)NC(=O)[C@H](CO)NC1=O)C(=O)N[C@@H](CC(C)C)C(=O)N[C@@H](Cc1c[nH]cn1)C(=O)N[C@@H](CCC(N)=O)C(=O)N[C@@H](CC(=O)O)C(=O)N[C@@H](CC(C)C)C(=O)N[C@H](C(N)=O)CSC3 [Ac-(06-34-18) Phe2 Cha4] (Ac-CSFP[Cha]RCLHQDLC-NH2; linker 1-7-13 via TBMB)
- Ki (Ki (nM) (human kallikrein)): 0.91 nM

Compound: CC(=O)N[C@H]1CSCc2cc3cc(c2)CSC[C@H](NC(=O)[C@@H](CCCNC(=N)N)NC(=O)[C@H](C)NC(=O)[C@@H]2CCCN2C(=O)[C@H](Cc2c[nH]c4ccccc24)NC(=O)[C@H](CO)NC1=O)C(=O)N[C@@H](CC(C)C)C(=O)N[C@@H](Cc1c[nH]cn1)C(=O)N[C@@H](CCC(N)=O)C(=O)N[C@@H](CC(=O)O)C(=O)N[C@@H](CC(C)C)C(=O)N[C@H](C(N)=O)CSC3 [Ac-(06-34-18) D-Arg5]
- loss in potency / reduction in affinity compared to wildtype: 300 fold

Compound: CC(C)C[C@@H]1NC(=O)[C@H](CC(=O)O)NC(=O)[C@H](CCC(N)=O)NC(=O)[C@H](Cc2c[nH]cn2)NC(=O)CN(C)C(=O)[C@@H]2CSCc3cc(cc(c3)CSC[C@H](NC(=O)[C@H](C)N)C(=O)N(C)CC(=O)N[C@@H](Cc3c[nH]c4ccccc34)C(=O)N3CCC[C@H]3C(=O)N[C@@H](C)C(=O)N[C@@H](CCCNC(=N)N)C(=O)N2)CSC[C@@H](C(=O)N[C@@H](C)C(N)=O)NC1=O [06-34-03 - N-MeGly1,6, AC N-MeGWPARCN-MeGHQDLCA] (H-AC[Sar]WPARC[Sar]HQDLCA-NH2; linker 2-8-14 via TBMB; N-terminus and C-terminus assumed)
- potency against human plasma Kallikrein compared to parent: reduction in potency

Next, values leading:

- Ki (read-out: Ki (nM) (human kallikrein)): < 1 nM
Compound: CC(=O)N[C@H]1CSCc2cc3cc(c2)CSC[C@H](NC(=O)[C@H](CCCNC(=N)N)N(C)C(=O)[C@H](Cc2ccc(O)cc2)NC(=O)[C@@H]2CCN2C(=O)[C@H](Cc2ccccc2)NC(=O)[C@H](CO)NC1=O)C(=O)N[C@@H](CC(C)C)C(=O)N[C@@H](Cc1c[nH]cn1)C(=O)N[C@@H](CCC(N)=O)C(=O)N[C@@H](CC(=O)O)C(=O)N[C@@H](CC(C)C)C(=O)N[C@H](C(N)=O)CSC3 [Ac-(06-34-18) Phe2 Aze3Tyr4 NMeArg5] (Ac-CSF[Aze]Y[NMeR]CLHQDLC-NH2; linker 1-7-13 via TBMB)

- loss in potency / reduction in affinity compared to wildtype: 45000 fold
Compound: CC(=O)N[C@H]1CSCc2cc3cc(c2)CSC[C@H](NC(=O)[C@H](CCCNC(=N)N)NC(=O)[C@H](C)NC(=O)[C@@H]2CCCN2C(=O)[C@@H](Cc2c[nH]c4ccccc24)NC(=O)[C@H](CO)NC1=O)C(=O)N[C@@H](CC(C)C)C(=O)N[C@@H](Cc1c[nH]cn1)C(=O)N[C@@H](CCC(N)=O)C(=O)N[C@@H](CC(=O)O)C(=O)N[C@@H](CC(C)C)C(=O)N[C@H](C(N)=O)CSC3 [Ac-(06-34-18) D-Trp2]

Source: patent US11912794B2, “Modulation of structured polypeptide specificity” (BicycleRD Limited, priority 2011, dated 2024)
